# Laboratory results published in patent publication US20210207099A1, “METHODS AND COMPOSITIONS FOR GENERATING CELLS OF ENDODERMAL LINEAGE AND BETA CELLS AND USES THEREOF” (priority 2018, published 2021).
# Legend:
# [1] = tested on: plated stage 4 cells; test: qRT-PCR and immunostaining of plated stage 4 cells treated with cytoskeletal modifying compounds; type: cell-based, human
# From the text: For experiments investigating the effects of plating pancreatic progenitors, cells were differentiated with the suspension protocol for stages 1-3. At the end of stage 3, clusters were single cell dispersed with TrypLE and plated onto tissue culture plates coated with various ECM proteins at 0.625×10^6 cells/cm^2. Differentiation media for the remainder of this hybrid protocol were the same as for the suspension protocol with the exception that Y-27632 and Activin A were omitted on days 2-5 of stage 4. Additional compounds were added as indicated in each experiment: 1 μM latrunculin A (Cayman Chemical, 10010630), 1 μM latrunculin B (Cayman Chemical, 10010631), 1 μM cytochalasin D (MilliporeSigma, C2618), 1 μM jasplakinolide (Cayman Chemical, 11705), 10 μM blebbistatin (MilliporeSigma, 203389), 1 μM nocodazole (Cayman Chemical, 13857), 1 μM Y-15 (Cayman Chemical, 14485), 10 μM Y-27632, and 10 μM GDC-0994 (Selleckchem, S7554). A variety of ECM coatings were initially tested with this plating methodology, including collagen I (Corning, 354249), collagen IV (Corning, 354245), fibronectin (Gibco, 33016-015), vitronectin (Gibco, A14700), matrigel (Corning, 356230), gelatin (Fisher, G7-500), and laminins 111, 121, 211, 221, 411, 421, 511, and 521 (Biolamina, LNKT-0201). All subsequent experiments with this hybrid protocol were performed on collagen I.
# Brightfield images were taken with a Leica DMi1 inverted light microscope, and fluorescence images were captured with a Nikon A1Rsi confocal microscope. For immunostaining, cells were fixed with 4% paraformaldehyde (PFA) at room temperature for 30 minutes. They were then blocked and permeabilized for 45 minutes at room temperature with an immunocytochemistry (ICC) solution consisting of 0.1% triton X (Acros Organics, 327371000) and 5% donkey serum (Jackson Immunoresearch, 017000-121) in PBS (Corning, 21-040-CV). Samples were then incubated with primary antibodies diluted in ICC solution overnight at 4° C., washed with ICC, incubated with secondary antibodies diluted in ICC for 2 hours at room temperature, and stained with DAPI for 15 minutes at room temperature. For histological sectioning, whole SC-β cell clusters generated with the planar protocol and mouse kidneys containing transplanted cells were fixed overnight with 4% PFA at 4° C. The in vitro clusters were also embedded in Histogel (Thermo Scientific, hg-4000-012). These samples were then paraffin-embedded and sectioned by the Division of Comparative Medicine (DCM) Research Animal Diagnostic Laboratory Core at Washington University in St. Louis. Paraffin was removed from sectioned samples with Histoclear (Thermo Scientific, C78-2-G), and antigen retrieval was carried out in a pressure cooker (Proteogenix, 2100 Retriever) with 0.05 M EDTA (Ambion, AM9261). Slides were blocked and permeabilized with ICC solution for 45 minutes, incubated with primary antibodies in ICC solution overnight at 4° C., and incubated with secondary antibodies for 2 hours at room temperature. Slides were then sealed with DAPI Fluoromount-G (SouthernBiotech, 0100-20).
# RNA was extracted from either whole clusters or cells directly on the plate with the RNeasy Mini Kit (Qiagen, 74016). Samples were treated with a DNAse kit (Qiagen, 79254) during extraction. The High Capacity cDNA Reverse Transcriptase Kit (Applied Biosystems, 4368814) was used to synthesize cDNA on a thermocycler (Applied Biosystems, A37028). The PowerUp SYBR Green Master Mix (Applied Biosystems, A25741) was used on a StepOnePlus (Applied Biosystems), and real time PCR results were analyzed using a ΔΔCt methodology. TBP and GUSB were both used as housekeeping genes. Primer sequences were as follows.
# [2] = tested on: Stage 6 cells; test: Perifusion GSIS with sequential secretagogue challenges; type: cell-based, human; settings: for insulin secretion during second challenge, secretagogue added to 20 mM glucose: 30 mM KCL, 20 mM L-Arginine, 300 μM Tolbutamide, 100 μM IBMX, 10 nM Extendin-4
# Description: The system used a high precision 8-channel dispenser pump (ISMATEC; ISM931C) in conjunction with 0.015″ inlet and outlet two-stop tubing (ISMATEC; 070602-04i-ND) connected to 275-μl cell chamber (BioRep; Pen-Chamber) and dispensing nozzle (BioRep; PERI-NOZZLE) using 0.04″ connection tubbing (BioRep; Peri-TUB-040). Solutions, tubing, and cells were maintained at 37° C. in a water bath. Stage 6 clusters and cadaveric human islets were washed with KRB twice and resuspended in 2 mM glucose KRB. Cells were then loaded onto a Biorep perifusion chamber sandwiched between two layers of Bio-Gel P-4 polyacrylamide beads (Bio-Rad; 150-4124). Cells were perfused with 2 mM glucose KRB for 90 min prior to sample collection for equilibration. For single high glucose challenges, sample collection was started with cells exposed to 2 mM glucose KRB for 12 min, followed by 24 min of 20 mM glucose KRB, and back to 2 mM glucose KRB for an additional 12 min. For multiple secretagogue challenges, sample collection was started with cells exposed to 2 mM glucose KRB for 6 min, followed by 12 min of 20 mM glucose KRB, 6 min 2 mM glucose KRB, 12 min of 20 mM glucose KRB plus treatment, and finally 6 min of 2 mM glucose KRB. Treatments with multiple secretagogues were as follows: 20 mM glucose only, 10 nM Extendin-4 (MilliporeSigma; E7144), 100 μM IBMX (MilliporeSigma; 15879), 300 μM Tolbutamide (MilliporeSigma; T0891), 20 mM L-Arginine (MilliporeSigma; A5006), and 30 mM KCL (Thermo Fisher; BP366500). Effluent was collected at a 100 μl/min flow rate with 2-4 min collection points. After sample collection, clusters were collected and lysed in 10 mM Tris (MilliporeSigma; T6066), 1 mM EDTA, and 0.2% Triton-X 100 solution and DNA was quantified using Quant-iT Picogreen dsDNA assay kit (Invitrogen; P7589). Insulin secretion was quantified using the Human Insulin Elisa kit.
# [3] = tested on: TGFβ signaling (phosphorylated SMAD); test: Western blot of SMAD 2/3 phosphorylation in Stage 6 cells; type: cell-based, human; settings: Alk5i versus DMSO
# Description: Protein was extracted from cell clusters after washing with PBS by placing in western blot lysis buffer consisting 50 mM HEPES, 140 mM NaCl (MilliporeSigma; 7647-14-5), 1 mM EDTA (MilliporeSigma, 1233508), 1% Triton X-100, 0.1% Na-deoxycholate (MilliporeSigma: D6750), 0.1% SDS (ThermoScientific; 24730020), 1 mM Na3VO4 (MilliporeSigma; 450243), 10 mM NaF (MilliporeSigma; S7920), and 1% Protease Inhibitor Cocktail (MilliporeSigma; p8340), incubating on a shaker for 15 min at 4° C., and centrifuging at 10000 RCF for 10 min at 4° C. Protein amount was quantified with the Pierce BCA Protein Assay (Thermo Scientific; 23228). Protein (30 μg) was loaded onto a 4-20% gradient polyacrylamide gel (Invitrogen; SP04200BOX), resolved by electrophoresis, and transferred onto a 0.45 μm nitrocellulose membrane (BioRad; 1620115). The nitrocellulose membrane was blocked with Blotting Grade Blocker (BioRad; 170-6404) and incubated with rabbit-anti-phospho-SMAD⅔ 1:1000 (Cell Signaling Technologies; 8828) and rabbit-anti-Actin 1:1000 (Santa Cruz Biotechnology; SC1616) antibodies in blocker overnight at 4° C. Membrane was washed and stained with rabbit secondary antibody 1:2500 (Jackson Immuno Research Laboratories; 211-032-171) in blocker for 2 hr at 4° C. and developed using SuperSignal West Femto (Thermo Scientific; 34096). Images were taken on an Odyssey FC (Li-COR). After imaging, the nitrocellulose membrane was stripped using Restore Western Blot Stripping Buffer (Thermo Scientific; 21059), incubated with rabbit-anti-SMAD⅔ (Cell Signaling Technologies; 8685) antibody overnight at 4° C., washed and stained with rabbit secondary antibody 1:2500 in blocker for 2 hr 4° C., developed using SuperSignal West Femto, and imaged using the Odyssey FC.
# [4] = tested on: Stage 5 cells
# Description: To initiate differentiation, undifferentiated cells were single-cell dispersed using Accutase and seeded at 6×10^5 cells/mL in mTeSR1+10 μM Y27632 in a 30-ml spinner flask. Cells were then cultured for 72 hr in mTeSR1 and then cultured in the following differentiation media. Stage 1 (3 days): S1 media+100 ng/ml Activin A (R&D Systems; 338-AC)+3 μM Chir99021 (Stemgent; 04-0004-10) for 1 day. S1 media+100 ng/ml Activin A for 2 days. Stage 2 (3 days): S2 media+50 ng/ml KGF (Peprotech; AF-100-19). Stage 3 (1 day): S3 media+50 ng/ml KGF+200 nM LDN193189 (Reprocell; 040074)+500 nM PdBU (MilliporeSigma; 524390)+2 μM Retinoic Acid (MilliporeSigma; R2625)+0.25 μM Sant1 (MilliporeSigma; S4572)+10 μM Y27632. Stage 4 (5 days): S4 media+5 ng/mL Activin A+50 ng/mL KGF+0.1 μM Retinoic Acid+0.25 μM SANT1+10 μM Y27632. Stage 5 (7 days): S5 media+10 μM ALK5i II (Enzo Life Sciences; ALX-270-445-M005)+20 ng/mL Betacellulin (R&D Systems; 261-CE-050)+0.1 μM Retinoic Acid+0.25 μM SANT1+1 μM T3 (Biosciences; 64245)+1 μM XXI (MilliporeSigma; 595790). Stage 6 (7-35 days): ESFM.
# (§1) Assays were performed by collecting ˜20-30 stage 6 clusters or cadaveric human islets, washed twice with KRB buffer (128 mM NaCl, 5 mM KCl, 2.7 mM CaCl2) 1.2 mM MgSO4, 1 mM Na2HPO4, 1.2 mM KH2PO4, 5 mM NaHCO3, 10 mM HEPES (Gibco; 15630-080), and 0.1% BSA), resuspended in 2 mM glucose KRB, and placed into transwells (Corning; 431752) in 24-well plates. Clusters were incubated at 2 mM glucose KRB for a 1 hr equilibration. The transwell was then drained and transferred into a new 2 mM glucose KRB well, discarding the old KRB solution. Clusters were again incubated for 1 hr at low glucose and then the transwell is drained and transferred into a new 2, 5.6, 11.1, or 20 mM glucose KRB well, retaining the old 2 mM glucose KRB. Clusters were then incubated for 1 hr at high glucose and then the transwell was drained and the old glucose KRB was retained. The retained KRB was run with the Human Insulin Elisa (ALPCO; 80-INSHU-E10.1) to quantify insulin secretion. The cells were single-cell dispersed by TrypLE treatment, counted on a Vi-Cell XR, and viable cell counts used to normalize insulin secretion.
# Clusters were single-cell dispersed with TrypLE, fixed with 4% paraformaldehyde for 30 min at 4° C., blocked and permeabilized with staining buffer for 30 min at 4° C., incubated with primary antibodies in staining buffer overnight at 4° C., incubated with secondary antibodies in staining buffer for 2 hr at 4° C., resuspended in staining buffer, and analyzed on an LSRII (BD Biosciences) or X-20 (BD Biosciences). Dot plots and percentages were generated using FlowJo. All antibodies were used at 1:300 dilution except where noted. The antibodies used were: rat-anti-C-peptide, mouse-anti-nkx6.1 (1:100), mouse-anti-glucagon, rabbit-anti-somatostatin, rabbit-anti-chromogranin A (1:1000), goat-anti-pdx1, anti-rat-alexa fluor 488, anti-mouse-alexa fluor 647 (Invitrogen; a31571), anti-rabbit-alexa fluor 647 (Invitrogen; a31573), anti-goat-alexa fluor 647 (Invitrogen; a21447), anti-rabbit-alexa fluor 488 (Invitrogen; a21206).
# RNA was extracted using the RNeasy Mini Kit (Qiagen; 74016) with DNase treatment (Qiagen; 79254), and cDNA was synthesized using High Capacity cDNA Reverse Transcriptase Kit (Applied Biosystems; 4368814). Real-time PCR reactions were performed in PowerUp SYBR Green Master Mix (Applied Biosystems; A25741) on a StepOnePlus (Applied Biosystems) and analyzed using ΔΔCt methodology. TBP was used as a normalization gene.
# [5] = tested on: Stage 6 cells
# Description: as §1
molecule,measurement,setting,value
C/C1=C/C(=O)O[C@@H]2C[C@@H](CC[C@H](C)/C=C\CC1)O[C@@](O)([C@@H]1CSC(=O)N1)C2 [Latrunculin B],dose response of NEUROG3 expression,"[1]; added during stage 4, qRT-PCR",increased NEUROG3 expression in a dose-dependent manner
same,concentration required relative to latrunculin A to achieve a similar effect on NEUROG3,"[1]; plated HUES8, stage 4",~10 ×
[Cl-].[K+] [KCl],response of Stage 6 cells to KCl challenge compared to human islets,[2]; 30 mM KCL with 20 mM glucose,stronger than in human islets
same,"insulin secretion during second challenge, secretagogue added to 20 mM glucose",[2],largest increases
exendin-4,"insulin secretion during second challenge, secretagogue added to 20 mM glucose",[2],increased insulin secretion over high glucose alone
CCCCNC(=O)NS(=O)(=O)c1ccc(C)cc1 [Tolbutamide],"insulin secretion during second challenge, secretagogue added to 20 mM glucose",[2],increased insulin secretion over high glucose alone
C/C1=C\[C@H](C)C[C@H](C)OC(=O)C[C@H](c2ccc(O)cc2)NC(=O)[C@@H](Cc2c(Br)[nH]c3ccccc23)N(C)C(=O)[C@H](C)NC(=O)[C@@H](C)C1 [jasplakinolide],premature NEUROG3 expression in reaggregated clusters,[1]; added to pancreatic progenitors during reaggregation after dispersion,attenuated premature NEUROG3 expression
CC(C)Cn1c(=O)n(C)c(=O)c2[nH]cnc21 [3-isobutyl-1-methylxanthine],"insulin secretion during second challenge, secretagogue added to 20 mM glucose",[2],increased insulin secretion over high glucose alone
N=C(N)NCCC[C@H](N)C(=O)O [L-Arginine],"insulin secretion during second challenge, secretagogue added to 20 mM glucose",[2],largest increases
"Cc1cccc(-c2[nH]ncc2-c2ccc3ncccc3n2)n1 [Alk5i, Alk5 inhibitor type II]",phosphorylated SMAD,[3],diminished phosphorylated SMAD
same,insulin secretion after further 7 d in Stage 6,"[4]; Alk5i during Stage 5, Stage 6 without Alk5i nor cluster resizing, 20 mM glucose",substantially higher in cells treated with Alk5i during Stage 5
same,INS and GCG gene expression,[4]; Alk5i omission during Stage 5,decreased with Alk5i omission
same,SST expression,[4]; Alk5i omission during Stage 5,slightly increased
same,fraction of cells co-expressing C-peptide and NKX6-1,[4]; omitting Alk5i during Stage 5,decreased by omitting Alk5i
same,fraction of cells differentiated to a C-peptide+ phenotype,[4]; omitting Alk5i during Stage 5,decreased by omitting Alk5i
same,fraction of cells differentiated to endocrine cells (CHGA+),[4]; omitting Alk5i during Stage 5,unchanged
same,expression of NKX6-1 and PDX1,[4]; without Alk5i during Stage 5,reduced without Alk5i
same,GSIS in a static assay with inclusion during Stage 6,[5]; Alk5i during Stage 6,relatively weak but statistically significant GSIS
same,insulin secretion in the dynamic GSIS assay,[5]; Alk5i during Stage 6,dramatically reduced insulin secretion
same,proinsulin/insulin ratio,[5]; DMSO versus Alk5i during Stage 6,remained similar
same,"fraction of cells expressing pancreatic endocrine markers, including C-peptide","[5]; DMSO- versus Alk5i-treated cells, Stage 6",remained similar
same,insulin content,[5]; removal of Alk5i during Stage 6 versus treatment,increased with removal of Alk5i
